The source of these data is publication PMC5384001 (Scientific Reports, 2017).

One experiment deals with T1, GluD2-(H)GluN1 (Rattus norvegicus, UniProt Q63226, A766F/D542Y/D767R/N763E/R768S/S544G/T764L/V761T/V765F/Y543Q).
T1 construct: have an effect on the function of full-length receptors as well; expressed in transfected cells; host or cells: Xenopus laevis oocytes injected with cRNA
T1 sequence (Q63226 24-1007 D542Y/Y543Q/S544G/V761T/N763E/T764L/V765F/A766F/D767R/R768S): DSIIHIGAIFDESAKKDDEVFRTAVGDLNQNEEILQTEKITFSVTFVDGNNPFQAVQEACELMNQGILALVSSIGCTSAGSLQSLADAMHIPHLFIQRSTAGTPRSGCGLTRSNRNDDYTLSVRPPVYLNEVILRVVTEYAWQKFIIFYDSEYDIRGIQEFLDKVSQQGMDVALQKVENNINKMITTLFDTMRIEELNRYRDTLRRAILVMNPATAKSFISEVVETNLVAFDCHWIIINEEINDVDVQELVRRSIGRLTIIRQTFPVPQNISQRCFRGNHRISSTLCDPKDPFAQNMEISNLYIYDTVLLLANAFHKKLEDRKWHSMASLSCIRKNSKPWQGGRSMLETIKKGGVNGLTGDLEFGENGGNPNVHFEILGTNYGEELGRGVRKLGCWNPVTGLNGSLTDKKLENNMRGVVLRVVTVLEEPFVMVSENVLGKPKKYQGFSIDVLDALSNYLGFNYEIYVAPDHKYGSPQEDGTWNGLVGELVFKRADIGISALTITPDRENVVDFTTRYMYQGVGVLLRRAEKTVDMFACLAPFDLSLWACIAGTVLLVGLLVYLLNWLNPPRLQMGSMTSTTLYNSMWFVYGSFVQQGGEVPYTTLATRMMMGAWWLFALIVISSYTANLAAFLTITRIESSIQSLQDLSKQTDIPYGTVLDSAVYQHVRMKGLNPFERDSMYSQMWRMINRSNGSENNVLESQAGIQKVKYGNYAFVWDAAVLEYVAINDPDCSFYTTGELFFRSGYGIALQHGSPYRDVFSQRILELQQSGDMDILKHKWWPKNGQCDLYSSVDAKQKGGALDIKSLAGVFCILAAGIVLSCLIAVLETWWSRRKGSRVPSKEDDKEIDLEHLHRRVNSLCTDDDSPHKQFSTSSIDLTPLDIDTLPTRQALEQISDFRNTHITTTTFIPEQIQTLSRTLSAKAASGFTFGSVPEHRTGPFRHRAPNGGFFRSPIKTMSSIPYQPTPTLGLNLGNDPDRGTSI
Put plainly: Two-electrode voltage clamp in Xenopus oocytes, current response. In kind it is cell-based. The procedure:
(§1) Oocytes were obtained by surgically removing parts of the ovaries from Xenopus laevis (Nasco, Fort Atkinson, WI, USA) anaesthetised with 1.5 g/L 3-aminobenzoic acid ethylester (Sigma, Taufkirchen, Germany). The ovary clippings were digested with 784 U/mL (4 mg/mL) collagenase type I (Worthington, Lakewood, NJ, USA) in Ca^2+-free Barth’s solution (88 mM NaCl, 1.1 mM KCl, 2.4 mM NaHCO3, 0.8 mM MgSO4, 15 mM HEPES-NaOH, pH 7.6) with gentle agitation for 1.5–2 h at 20 °C to remove the follicular cell layer. After stopping the collagenase digestion by washing with Barth’s solution (88 mM NaCl, 1.1 mM KCl, 2.4 mM NaHCO3, 0.3 mM Ca(NO3)2, 0.4 mM CaCl2, 0.8 mM MgSO4, 15 mM HEPES-NaOH, pH 7.6), defolliculated oocytes of stages V and VI were selected and maintained at 16 °C in Barth’s solution supplemented with 100 μg/mL gentamicin, 40 μg/mL streptomycin, and 63 μg/mL penicillin. Oocytes were injected with 11 ng cRNA (10 ng of each cRNA for co-expression of GluN1 and GluN2A) using a nanoliter injector (WPI, Sarasota, FL, USA). Four days after cRNA injection, current responses were recorded under voltage clamp at –70 mV with a Turbo Tec-10CD amplifier (npi electronic, Tamm, Germany) controlled by Patchmaster software (HEKA, Lambrecht, Germany). Currents were filtered with a 20 Hz low-pass filter and then digitised with a sampling rate of 50 Hz. Recording electrodes were pulled from borosilicate glass (Hilgenberg, Malsfeld, Germany) with an L/M-3P-A vertical pipette puller (List-Medical), filled with 3 M KCl, and had resistances of 0.5–5 MΩ (voltage electrode) or 0.5–1.5 MΩ (current electrode). Recordings were performed in a 50 μL chamber under constant superfusion with extracellular solution at a flow rate of 3–5 mL/min. […] Finally, Ba-NFR and then NMDGR were applied again to check for reversibility.
For orientation: Two-electrode voltage clamp holds a large cell at a set potential and records current.

For experiment [1], the target named is T2, GluN1-1a-(H)GluD2 with GluN2A (Rattus norvegicus, UniProt P35439, E751N/F753V/F754A/G537S/L752T/Q536Y/R755D/S756R/T749V/Y535D).
T2 construct: expressed in transfected cells; host or cells: Xenopus laevis oocytes injected with cRNA
The experiment is described as above. It is filed as cell-based. The following applies: 100 μM glutamate plus 1 mM D-serine, n = 23. The method, then: as §1

The next experiment concerns the target GluN1 LBD. Also on record: method as in PMID 12805203. The following applies: cited from earlier work.

As for `N[C@H](CO)C(=O)O` [D-serine], the current response on GluD2-(H)GluN1 (10 μM D-serine, n = 14) was 1.1 ± 0.6 nA; on GluD2-(H)GluN1 (1 mM D-serine, n = 22), 2.3 ± 0.4 nA; in experiment [1], 5.8 ± 1.0 nA. The Kd (as a rule, the free concentration of one partner at which half of the binding sites on the other are occupied at equilibrium, for simple one-to-one binding) at GluN1 LBD is 7 µM.
